Patent publication US5008419A, “Novel platinum complex” (SS Pharmaceutical Co., Ltd., priority 1988, dated 1991)

Tests used:
L1210 leukemia cells = experiment: Antitumor activity against L1210 leukemia in CDF1 mice (increase life span, survived ratio); format: in vivo, CDF1 male mice; details: for ILS (increase life span) / Survived ratio: i.p., once a day for 5 days; for Survived ratio: 30 days observation; for ILS50 (50% increase life span dose): mouse, in vivo, ip, 43200 min
Protocol: CDF1 male mice (age: 6 weeks) consisting of 6 per each group were used to the test. 1×10^5 L1210 leukemia cells were intraperitoneally inoculated into each mouse. Test compounds dissolved in a solution of 0.5% CMC-Na in physiological saline were intraperitoneally administered to mice once a day for 5 consecutive days from the next day of the inoculation. A 0.5% CMC-Na solution in physiological saline was administered to the control group. […] All of these compounds are known compounds and Comparative Compounds a-c were disclosed in U.S. Pat. No. 4,169,846.
Observation was continued for consecutive 30 days after the administration. Increase life span (ILS) was determined according to the following equation: […]
wherein T is the mean survival days of the treated groups, and C is the mean survival days of the control groups.
(§1) Therapeutic index of compounds of this invention was determined according to the following equation. [formula]

Water solubility = format: physicochemical
50% lethal dose (LD50) = details: in vivo
Protocol: as §1

Row | Molecule | ILS (increase life span) (L1210 leukemia cells; 2.0 mg/kg) [%] | Survived ratio (L1210 leukemia cells; 2.0 mg/kg) [%] | ILS (increase life span) (L1210 leukemia cells; 4.0 mg/kg) [%] | Survived ratio (L1210 leukemia cells; 4.0 mg/kg) [%] | ILS (increase life span) (L1210 leukemia cells; 8.0 mg/kg) | Survived ratio (L1210 leukemia cells; 8.0 mg/kg) [%] | ILS (increase life span) (L1210 leukemia cells; 16.0 mg/kg) | Survived ratio (L1210 leukemia cells; 16.0 mg/kg) [%] | ILS (increase life span) (L1210 leukemia cells; 32.0 mg/kg) | Survived ratio (L1210 leukemia cells; 32.0 mg/kg) [%] | ILS50 (50% increase life span dose) (L1210 leukemia cells) [mg/kg] | Water solubility (Water solubility) [µg/mL] | LD50 (50% lethal dose) (50% lethal dose (LD50)) [mg/kg] | ILS (increase life span) (L1210 leukemia cells; 64.0 mg/kg) | Survived ratio (L1210 leukemia cells; 64.0 mg/kg) [%] | ILS (increase life span) (L1210 leukemia cells; 128.0 mg/kg) [%] | Survived ratio (L1210 leukemia cells; 128.0 mg/kg) [%] | ILS (increase life span) (L1210 leukemia cells; 0.5 mg/kg) [%] | ILS (increase life span) (L1210 leukemia cells; 1.0 mg/kg) [%]
1 | (trans-dl-1,2-diaminocyclohexane) dimethylmalonatoplatinum (II) [Compound No. 1] | 40 | 0 | 49 | 0 | above 136% | 17 | 112% | 0 | 130% | 0 | 3.4 | 8000 | 140.0 | – | – | – | – | – | –
2 | CCC1C(=O)[O][Pt]2([NH]C3CCCCC3[NH]2)[O]C1=O (racemic) [Comparative Compound c, (trans-dl-1,2-diaminocyclohexane)ethylmalonatoplatinum (II)] | – | – | 27 | – | 31% | – | 52% | – | 69% | – | 14.2 | – | 244.9 | – | – | – | – | – | –
3 | CC1C(=O)[O][Pt]2([NH]C3CCCCC3[NH]2)[O]C1=O (racemic) [Comparative Compound b, (trans-dl-1,2-diaminocyclohexane)methylmalonatoplatinum (II)] | – | – | 17 | – | 27% | – | 43% | – | 79% | – | 14.9 | – | 312.6 | – | – | – | – | – | –
4 | N.N.O=C([O-])C1(C(=O)[O-])CCC1.[Pt+2] [Carboplatin] | – | – | – | – | 27% | 0 | 29% | 0 | 43% | 0 | 31.2 | – | 200.0 | 70% | 0 | 25 | 0 | – | –
5 | (trans-dl-1,2-diaminocyclohexane) diethylmalonatoplatinum (II) [Compound No. 2] | 43 | 0 | 61 | 0 | above 135% | 33 | above 124% | 17 | above 168% | 33 | 2.7 | 10000 | 140.0 | – | – | – | – | – | –
6 | (trans-dl-1,2-diaminocyclohexane)-malonatoplatinum (II) [Comparative Compound a] | – | – | 35 | 0 | 49% | 0 | 82% | 0 | 94% | 17 | 7.1 | 500 | 244.9 | above 108% | 17 | – | – | – | –
7 | N.N.[Cl][Pt][Cl] [Cisplatin] | 75 | – | 88 | – | – | – | – | – | – | – | 1.3 | – | – | – | – | – | – | 19 | 33
